Assay: Effect of temperature (and pH) on the stability of the solution (purity)
Assay type: physicochemical
Conditions: 7% solution in water

- Purity(%) at day 0 (pH 1.0, day 0): 98.0 ± 0.3%
- Purity(%) at day 21 (5° C.) (pH 1.0, day 21, 5° C.): 92.7 ± 0.3%
- Purity(%) at day 21 (25° C.) (pH 1.0, day 21, 25° C.): 69.1 ± 0.3%
- Purity(%) at day 21 (40° C.) (pH 1.0, day 21, 40° C.): 16.3 ± 0.3%
- Purity (%) at day 21 (60° C.) (pH 1.0, day 21, 60° C.): 0%
- Purity(%) at day 0 (pH 2.0, day 0): 98.1 ± 0.3%
- Purity(%) at day 21 (5° C.) (pH 2.0, day 21, 5° C.): 95.9 ± 0.3%
- Purity(%) at day 21 (25° C.) (pH 2.0, day 21, 25° C.): 83.5 ± 0.3%
- Purity(%) at day 21 (40° C.) (pH 2.0, day 21, 40° C.): 27.5 ± 0.3%
- Purity (%) at day 21 (60° C.) (pH 2.0, day 21, 60° C.): 0%
- Purity(%) at day 0 (pH 3.0, day 0): 98.3 ± 0.2%
- Purity(%) at day 21 (5° C.) (pH 3.0, day 21, 5° C.): 97.4 ± 0.3%
- Purity(%) at day 21 (25° C.) (pH 3.0, day 21, 25° C.): 94.6 ± 0.2%
- Purity(%) at day 21 (40° C.) (pH 3.0, day 21, 40° C.): 49.3 ± 0.2%
- Purity (%) at day 21 (60° C.) (pH 3.0, day 21, 60° C.): 0%
- Purity(%) at day 0 (pH 3.7, day 0): 98.4 ± 0.2%
- Purity(%) at day 21 (5° C.) (pH 3.7, day 21, 5° C.): 97.7 ± 0.2%
- Purity(%) at day 21 (25° C.) (pH 3.7, day 21, 25° C.): 97.3 ± 0.2%
- Purity(%) at day 21 (40° C.) (pH 3.7, day 21, 40° C.): 59.9 ± 0.2%
- Purity (%) at day 21 (60° C.) (pH 3.7, day 21, 60° C.): 19.3 ± 0.3%
- Purity(%) at day 0 (pH 4.0, day 0): 98.5 ± 0.1%
- Purity(%) at day 21 (5° C.) (pH 4.0, day 21, 5° C.): 98.2 ± 0.2%
- Purity(%) at day 21 (25° C.) (pH 4.0, day 21, 25° C.): 97.5 ± 0.2%
- Purity(%) at day 21 (40° C.) (pH 4.0, day 21, 40° C.): 70.7 ± 0.2%
- Purity (%) at day 21 (60° C.) (pH 4.0, day 21, 60° C.): 23.6 ± 0.3%
- Purity(%) at day 0 (pH 4.3, day 0): 98.5 ± 0.2%
- Purity(%) at day 21 (5° C.) (pH 4.3, day 21, 5° C.): 98.2 ± 0.2%
- Purity(%) at day 21 (25° C.) (pH 4.3, day 21, 25° C.): 97.6 ± 0.1%
- Purity(%) at day 21 (40° C.) (pH 4.3, day 21, 40° C.): 70.1 ± 0.2%
- Purity (%) at day 21 (60° C.) (pH 4.3, day 21, 60° C.): 27.7 ± 0.2%
- Purity(%) at day 0 (pH 4.6, day 0): 98.5 ± 0.1%
- Purity(%) at day 21 (5° C.) (pH 4.6, day 21, 5° C.): 98.2 ± 0.2%
- Purity(%) at day 21 (25° C.) (pH 4.6, day 21, 25° C.): 97.5 ± 0.2%
- Purity(%) at day 21 (40° C.) (pH 4.6, day 21, 40° C.): 59.3 ± 0.2%
- Purity (%) at day 21 (60° C.) (pH 4.6, day 21, 60° C.): 22.3 ± 0.2%
- Purity(%) at day 0 (pH 5.0, day 0): 98.4 ± 0.2%
- Purity(%) at day 21 (5° C.) (pH 5.0, day 21, 5° C.): 97.5 ± 0.2%
- Purity(%) at day 21 (25° C.) (pH 5.0, day 21, 25° C.): 94.9 ± 0.2%
- Purity(%) at day 21 (40° C.) (pH 5.0, day 21, 40° C.): 45.8 ± 0.3%
- Purity (%) at day 21 (60° C.) (pH 5.0, day 21, 60° C.): 5.9 ± 0.2%
- Purity(%) at day 0 (pH 6.0, day 0): 98.2 ± 0.2%
- Purity(%) at day 21 (5° C.) (pH 6.0, day 21, 5° C.): 95.3 ± 0.2%
- Purity(%) at day 21 (25° C.) (pH 6.0, day 21, 25° C.): 88.8 ± 0.2%
- Purity(%) at day 21 (40° C.) (pH 6.0, day 21, 40° C.): 28.6 ± 0.2%
- Purity (%) at day 21 (60° C.) (pH 6.0, day 21, 60° C.): 0%
- Purity(%) at day 0 (pH 7.0, day 0): 98.0 ± 0.3%
- Purity(%) at day 21 (5° C.) (pH 7.0, day 21, 5° C.): 90.2 ± 0.3%
- Purity(%) at day 21 (25° C.) (pH 7.0, day 21, 25° C.): 60.9 ± 0.2%
- Purity(%) at day 21 (40° C.) (pH 7.0, day 21, 40° C.): 17.4 ± 0.3%
- Purity (%) at day 21 (60° C.) (pH 7.0, day 21, 60° C.): 0%
- Purity(%) at day 0 (pH 8.0, day 0): 97.7 ± 0.3%
- Purity(%) at day 21 (5° C.) (pH 8.0, day 21, 5° C.): 79.7 ± 0.3%
- Purity(%) at day 21 (25° C.) (pH 8.0, day 21, 25° C.): 49.9 ± 0.3%
- Purity(%) at day 21 (40° C.) (pH 8.0, day 21, 40° C.): 0%
- Purity (%) at day 21 (60° C.) (pH 8.0, day 21, 60° C.): 0%
Structure (SMILES): CCN(CC)CCOC(=O)CCc1ccc2cc(OC)ccc2c1.Cl

Source: patent US20230157952A1, “METHOD FOR IMPROVING THE STABILITY OF A PHARMACEUTICAL COMPOSITION COMPRISING A HIGH PENETRATION DRUG, AND THE PHARMACEUTICAL COMPOSITION OBTAINED THEREFROM” (Techfields Inc., priority 2020, published 2023)
